Test results reported in patent US20210236512A1 (ZARODEX THERAPEUTICS LIMITED, priority 2018, published 2021).
Several values for one entry are separate records, joined by “and”; a condition that tells them apart may be missing. Equal values may be shown once.

What was measured:
[1] = test system: Immunoglobulin levels (IgG, IgA and IgM); assay: First observational study: serum immunoglobulin levels by nephelometry, clozapine-treated vs clozapine-naive patients; assay type: in vivo, human
[2] = test system: collagen-induced arthritis (CIA); assay: Mouse collagen-induced arthritis (CIA) model: onset, clinical score and paw-swelling; assay type: in vivo, DBA/1 mice
Text: Adult (age 13-15 weeks) DBA/1 male mice were purchased from Envigo (Horst, Netherlands). […] 1. […] All experiments were approved by the Clinical Medicine Animal Welfare and Ethical Review Body (AWERB) and by the UK Home Office. DBA/1 mice were immunised with bovine type II collagen in CFA and monitored daily for onset of arthritis. […] Controls received vehicle (saline) alone. Treatment of mice commenced in one experiment on day 1 after immunisation and in a second experiment on day 15 after immunisation. Clinical scores and paw-swelling were monitored for 10 days following onset of arthritis. A clinical scoring system was used as follows. Arthritis severity was scored by an experienced, non-blinded investigator as follows: 0=normal, 1=slight swelling and/or erythema, 2=pronounced swelling, 3=ankylosis. […] Data were analyzed by one-way ANOVA with Tukey's or Dunnett's multiple comparison test or two-way ANOVA with Tukey's multiple comparison test as appropriate. All calculations were made using GraphPad Prism software.

[3] = test system: anti-type II collagen IgG1 and IgG2a; assay: Mouse CIA model: specific anti-collagen immunoglobulin by ELISA; assay type: in vivo, DBA/1 mice
[4] = test system: Specific antibody titres against Haemophilus influenzae, Tetanus and Pneumococcal capsular polysaccharide; parameters: species or system human; conditions: in vivo
[5] = human, in vivo; cited from earlier work
[6] = test system: B cell subsets and T cells in spleen; assay: Wild type mouse study: spleen immunophenotyping by flow cytometry
[7] = test system: total peripheral blood B-cells isolated from healthy donors; assay type: cell-based, human; conditions: clozapine 25-350 ng/ml, norclozapine 15-200 ng/ml, haloperidol 2-25 ng/ml
Method: The experiment was performed from four independent donors.

[8] = sub-group B: possible secondary causes excluded, n=94
[9] = sub-group C: schizophrenia diagnoses only, secondary causes excluded, n=87
[10] = sub-group D: smokers only, secondary causes excluded, n=57

With CN1CCN(C2=Nc3cc(Cl)ccc3Nc3ccccc32)CC1 [Clozapine, clozapine] the “Serum IgG <3 g/L, percentage of patients” value [1, 8] was 1.1%, the “Serum IgG <4 g/L, percentage of patients” value [1, 8] was 1.1% and the “Serum IgG <5 g/L, percentage of patients” value [1, 8] was 2.1%. The “Serum IgG <6 g/L (below reference range 6-16 g/L), percentage of patients” value (“Serum IgG <6 g/L … percentage of patients” below) [1, 8] was 8.4%, the “Serum IgM <0.2 g/L, percentage of patients” value [1, 8] was 5.3% and the “Serum IgM <0.3 g/L, percentage of patients” value [1, 8] was 12.8%. For the same molecule, the “Serum IgM <0.4 g/L, percentage of patients” value [1, 8] was 26.6%, the “Serum IgM <0.5 g/L (below reference range 0.5-1.9 g/L), percentage of patients” value (“Serum IgM <0.5 g/L … percentage of patients” for short) [1, 8] was 34.0% and the “Serum IgA <0.5 g/L, percentage of patients” value [1, 9] was 2.3%. For the same molecule, the “Serum IgA <0.6 g/L, percentage of patients” value [1, 9] was 3.5%, the “Serum IgA <0.7 g/L, percentage of patients” value [1, 9] was 6.9% and the “Serum IgA <0.8 g/L (below reference range 0.8-4.0 g/L), percentage of patients” value [1, 9] was 14.9%. For the same molecule, the “Serum IgG <3 g/L, percentage of patients” value [1, 9] was 1.2%, the “Serum IgG <4 g/L, percentage of patients” value [1, 9] was 1.2% and the “Serum IgG <5 g/L, percentage of patients” value [1, 9] was 2.3%. The “Serum IgG <6 g/L … percentage of patients” value [1, 9] was 9.2%, the “Serum IgM <0.2 g/L, percentage of patients” value [1, 9] was 5.8% and the “Serum IgM <0.3 g/L, percentage of patients” value [1, 9] was 12.6%. The “Serum IgM <0.4 g/L, percentage of patients” value [1, 9] was 27.6%, the “Serum IgM <0.5 g/L … percentage of patients” value [1, 9] was 35.6% and the “Serum IgA <0.5 g/L, percentage of patients” value [1, 10] was 3.5%. For the same molecule, the “Serum IgA <0.6 g/L, percentage of patients” value [1, 10] was 3.5%, the “Serum IgA <0.7 g/L, percentage of patients” value [1, 10] was 3.5% and the “Serum IgA <0.8 g/L (below reference range 0.8-4.0 g/L), percentage of patients” value [1, 10] was 10.5%. For the same molecule, the “Serum IgG <3 g/L, percentage of patients” value [1, 10] was 1.8%, the “Serum IgG <4 g/L, percentage of patients” value [1, 10] was 1.8% and the “Serum IgG <5 g/L, percentage of patients” value [1, 10] was 1.8%. The “Serum IgG <6 g/L … percentage of patients” value [1, 10] was 8.8%, the “Serum IgM <0.2 g/L, percentage of patients” value [1, 10] was 1.78% and the “Serum IgM <0.3 g/L, percentage of patients” value [1, 10] was 12.3%. For the same molecule, the “Serum IgM <0.4 g/L, percentage of patients” value [1, 10] was 26.3%, the “Serum IgM <0.5 g/L … percentage of patients” value [1, 10] was 33.3% and the “Swelling of the first affected paw” value ([2]; 10 mg/kg from day 1) was “reduced”. For the same molecule, the “Onset of arthritis post-immunisation” value ([2]; 5 or 10 mg/kg IP daily from day 1 or day 15) was “significantly effective in delaying the onset of arthritis”, the “Arthritis onset, treatment from day 1” value ([2]; both doses (5, 10 mg/kg) from day 1) was “extremely effective in delaying arthritis onset” and the Overall clinical score ([2]; both doses, administered on day 1) was “reduced”. For the same molecule, the “Incidence of CIA” value ([2]; most apparent when dosed just after CII immunisation, FIG. 26) was “reduces the incidence”, the “Total number of affected paws compared to vehicle control” value ([2]; significant with dosing at D1) was “reduced” and the “Reduction of anti-type II collagen IgG1” value ([3]; 10 mg/kg from day 15) was “reaching statistical significance”. The “Serum anti-type II collagen IgG2a” value ([3]; 5 or 10 mg/kg from day 1 or day 15, single time point) was “no significant impact”, the “Levels of anti-type II collagen IgG1” value ([3]; across all doses tested) was “nominal reductions” and the “IgG-Haemophilus B <1.0 mcg/ml, percentage of patients” value [4] was 51% and 51.2% and 51.1% and 49.4% and 50.9%. For the same molecule, the “IgG-Pneumococcus <35 mg/L, percentage of patients” value [4] was 39.0% and 38.3% and 37.9% and 45.6%, the “IgG-Pneumococcus <50 mg/L, percentage of patients” value [4] was 52.1% and 50.6% and 54.4% and the “IgG-Tetanus <0.1 IU/ml, percentage of patients” value [4] was 10.6% and 11.5% and 12.3%. The “IgM-Pneumococcus, mean” value [4] was 58.5 U/L and 59.8 U/L and 60.4 U/L and 61.6 U/L, the “Pneumococcal IgM level” value [4] was 58.5 U/ml and the “Previously treatment refractive schizophrenia patients in whom effective” value [5] was “approximately 60%”. For the same molecule, the “Other splenic cell populations (B220-TCR-b-)” value ([6]; 5 mg/kg and 10 mg/kg) was “No effect”, the “Percentage of splenic T cells” value ([6]; 5 mg/kg and 10 mg/kg) was “reciprocal increase” and the “Percentage of splenic B cells (B220+TCR-b-) as a proportion of total live splenocytes” value ([6]; 5 mg/kg and 10 mg/kg IP, 21 days) was “significantly lower”. For the same molecule, the “Proportion of T2 B cells in the spleen” value ([6]; across all doses of clozapine) was “small increase”, the “Activated T cells (B220+TCR-b+) in spleen vs control” value ([6]; clozapine 2.5-10 mg/kg) was “reduced in dose-dependent fashion” and the “Splenic follicular or marginal zone B cell subsets” value ([6]; clozapine IP, 21 days) was “no specific reductions”. For the same molecule, the “Proportion of transitional stage 1 (T1) B cells in the spleen” value ([6]; including at the 2.5 mg/kg dose) was “mildly reduced”, the “Germinal centre cells in the spleen vs control or haloperidol” value ([6]; steady state) was “no differences” and the “Functional or phenotypic maturation of activated B cells to an early PC state” value [7] was “no consistent inhibitory effect”. For the same molecule, the “Ability of differentiated ASCs to secrete antibody (total IgM/IgG ELISA)” value ([7]; day 6 and day 9) was “no consistent effect”.
